Measurements taken from paper PMC12210739, “A sialic acid-binding protein in Toxoplasma gondii contains a conserved globular domain in apicomplexan parasites” (Parasites & Vectors, 2025).

How the values were obtained:
[1] = test system: TgSABP1-6′SL-PAA interaction; assay: Competitive BLI assay of TgSABP1-6′SL-PAA interaction; assay type: binding, Toxoplasma gondii; conditions: 5 μM TgSABP1; for Inhibition of binding of recombinant TgSABP1 to 6′SL-PAA: SA 5, 10, 20 mM, lactose 25, 50, 100 mM, oseltamivir phosphate 30, 60 mM
Method: To evaluate small molecule-mediated inhibition of TgSABP1-6′SL-PAA interaction, streptavidin biosensors pre-loaded with 2.4 μM 6′SL-PAA until saturation (threshold ≥ 1.5 nm shift) were subjected to competitive binding assays on an Octet K2 system. Four test compounds were diluted to different concentrations in PBST-BSA, including SA (5, 10, and 20 mM), lactose (25, 50, and 100 mM), oseltamivir phosphate (30 and 60 mM), and eltrombopag (5 and 50 μM). The His-tagged TgSABP1 protein was diluted to 5 μM with different concentrations of compounds and incubated for 15 min at room temperature. The competition binding test included equilibration for 90 s in the compound solution, association for 60–180 s in the pre-treated protein solution, dissociation for 60–90 s in the compound solution, and regeneration [3 × 20 s pulses in HCl (pH 1.0) followed by PBS neutralization]. Data parameters were analyzed by ForteBio Data Analysis software (v 9.0.0.14) using the average reference sensors’ subtraction method and 1:1 binding model. All experiments were repeated in triplicate.

[2] = test system: T. gondii RH-RFP tachyzoites; assay: Intra-vacuolar proliferation (parasites per vacuole); assay type: cell-based, Toxoplasma gondii
Method: (§1) The anti-invasive activity of eltrombopag against T. gondii was assessed using a fluorescence-based invasion assay with modifications to the established protocols. Toxoplasma gondii RH strains stably expressing red fluorescence protein were added to 2 × 10^5 Vero cells (multiplicity of infection [MOI] of 1:1) pre-treated with the drug or the equivalent volume of DMSO for 1 h. One hour after the parasites were added, the parasites were removed and the cells were gently washed with PBS three times, then incubated with DMEM containing 2% FBS. After 16 h of cultivation, the cells were fixed with 4% PFA and stained with DAPI (Beyotime, Shanghai, China). The numbers of parasitophorous vacuoles (PVs) and host cells were counted in a total of 20 randomly selected fields under a fluorescence microscope (Leica DM4B, Wetzlar, Germany). Invasion efficiency = (number of PVs/number of DAPI^+ cells) × 100%. Meanwhile, the number of parasites in each vacuole was determined. Seventy vacuoles from each coverslip were counted across at least three biological replicates. Intra-vacuolar proliferation was expressed as the mean number of parasites per PV.

[3] = test system: T. gondii RH-RFP tachyzoites; assay: T. gondii host cell invasion assay in Vero cells; assay type: cell-based; conditions: Toxoplasma gondii
Method: as §1

T. gondii = assay: Anti-parasite activity in vivo

Which “Inhibition of binding of recombinant TgSABP1 to 6′SL-PAA” value (“Inhibition of binding … to 6′SL-PAA” below) [1] does the source give for OC[C@H]1O[C@@H](O[C@H]2[C@H](O)[C@@H](O)C(O)O[C@@H]2CO)[C@H](O)[C@@H](O)[C@H]1O (mixture of isomers) [lactose] here?
Its value is “did not”.

With CC(=O)N[C@H]1[C@H]([C@H](O)[C@H](O)CO)OC(O)(C(=O)O)C[C@@H]1O (some centres unmarked) [SA, sialic acid] as the compound, how does the “Inhibition of binding … to 6′SL-PAA” value [1] read?
The value was “exhibited the inhibition on the binding of recombinant TgSABP1 to 6′SL-PAA in a concentration-dependent manner”.

What does the source list for CC1=NN(c2ccc(C)c(C)c2)C(=O)/C1=N\Nc1cccc(-c2cccc(C(=O)O)c2)c1O [eltrombopag]?
Intracellular parasite replication ([2]; 10 μM): without affecting intracellular parasite replication; Replication of invaded parasites ([2]; 20 μM, vs DMSO control): significantly impaired; inhibition at 10 µM ([3]; 10 μM, vs DMSO control, read-out: Inhibition rate of host cell invasion): 47.8%; inhibition at 20 µM ([3]; 20 μM, vs DMSO control, read-out: Inhibition rate of host cell invasion): 57.7%; IC50 ([3]; calculated, read-out: IC50 for anti-invasion of T. gondii): 11.6 µM; Anti-parasite activity in vivo (T. gondii): did not show any anti-parasite activity in vivo; Blocking of binding of recombinant TgSABP1 to 6′SL-PAA ([1]; 50 μM compound): significantly blocked

Which “Inhibition of binding … to 6′SL-PAA” value [1] does the source give for CCOC(=O)C1=C[C@@H](OC(CC)CC)[C@H](NC(C)=O)[C@@H](N)C1 [oseltamivir phosphate] here?
Its value is “dose-dependent inhibition”.

And the “Blocking of binding of recombinant TgSABP1 to 6′SL-PAA” value ([1]; 60 mM compound)?
Its value is “significantly blocked”.
